Experimental data reported in US20040156930A1, “Treating mouth ulcers with patches to speed healing and relieve pain” (priority 2002, published 2004).

Key:
[1] = test system: canker sores (aphthous ulcers); settings: topical application, reported in literature; cited from earlier work
[2] = test system: canker sores (aphthous ulcers); test: Inventor's trials of oral patches with licorice root extract or amoxicillin on canker sores; type: in vivo, human
Method: For medication to be placed in the patch, any of the above-mentioned antimicrobials, or similar antimicrobials, may be used. […] A preferred quantity of licorice extract in each patch that lasts 1 to 6 hours is 20 to 95 milligrams.
In the testing, conventional amoxicillin powder for preparation of oral suspension was used, which includes sugars and other excipients. The sugars act as a binder to the sponge of the oral patch. The oral suspension is massaged into the patch and dried. Preferably, the amoxicillin powder is mixed into a stronger than normal liquid form before being added to the patch.

| Molecule | healing of canker sores [1] | other results |
| --- | --- | --- |
| N=C(NCCCCCCNC(=N)NC(=N)Nc1ccc(Cl)cc1)NC(=N)Nc1ccc(Cl)cc1.O=C(O)[C@H](O)[C@@H](O)[C@H](O)[C@H](O)CO.O=C(O)[C@H](O)[C@@H](O)[C@H](O)[C@H](O)CO [chlorhexidine gluconate] | reported to speed healing of canker sores | – |
| CC1(C)S[C@@H]2[C@H](NC(=O)[C@H](N)c3ccc(O)cc3)C(=O)N2[C@H]1C(=O)O [amoxicillin] | shown effective | effectiveness on canker sores ([2]; amoxicillin powder for oral suspension on conventional patches): works quite well; typical duration of each canker sore ([2]; in a patch applied for half of the hours, day and night, typically 10-14 days without treatment): ~2 days; results of treatment of canker sores ([2]; patch keeping medication on or near the sore about half of the hours in a day over 2 days): nearly always effective; results of treatment of canker sores ([2]; troche, gel, paste or liquid applied six times per day for 2 days): nearly always ineffective |
| OO [hydrogen peroxide] | reported to speed healing of canker sores | – |
| NC(N)=O.OO [carbamide peroxide] | reported to speed healing of canker sores | – |
| penicillin | shown to speed healing of canker sores | – |
| CN(C)CCOC(c1ccccc1)c1ccccc1 [diphenhydramine] | reported to speed healing of canker sores | – |
